According to patent US9617272B2, “Tricyclic compounds as inhibitors of immunosuppression mediated by tryptophan metabolization” (NewLink Genetics Corporation, priority 2013, dated 2017):

What was measured:
[1] = target: purified human IDO protein (Homo sapiens (Human), UniProt P14902); experiment: Enzymatic IDO assay; type: biochemical
Method: Expression vectors for human indoleamine-2,3-dioxygenase (IDO) protein were prepared by amplification of a 1219 bp fragment of the sequence present in vector phIDO6His cDNA with primers 5′-ggagcatgcta[…]-3′ (SEQ ID NO: 1) and 5′gagagatct[…]-3′ (SEQ ID NO: 2) and cloning the SphI-BglII 1213 bp fragment into pQE70 (Qiagen), to yield vector pQE70-hIDO. This construct adds 2 extra amino acids and a 6-Histidine tag to the C-terminus of the natural human IDO protein while preserving intact the natural start codon and N-terminus amino acid sequence.
Plasmid pQE70-hIDO was transformed into M15(pREP4) cells (Qiagen) and clones were selected in LB-agar plates supplemented with carbenicillin 50 μg/mL and kanamycin 30 μg/mL. Protein expression was carried out by growing an overnight culture of the M15pREP4/pQE70-hIDO clone in 100 mL LB supplemented with 100 μg/mL carbenicillin, 50 μg/mL kanamycin and 50 μg/mL of L-tryptophan (LBCKT medium). 40 mL of this culture were inoculated into 750 mL of LBCKT for 4 hours at 37° C. This culture was diluted 1:10 into LBCKT medium and cultured for another 2 hours at 37° C. until OD600 was higher than 0.8. At this point the cultures were inoculated with Hemin to 7 μM and L-Tryptophan to 75 μg/mL and incubated at 37° C. for 2 h. Induction of protein expression was carried out by supplementing the cultures with IPTG to 1 mM, PMSF to 200 μM, EDTA to 1 mM and L-tryptophan to 50 μg/mL. Incubation was continued for additional 16 h at 25° C. Cells were collected by centrifugation, and the cell pellets were washed with PBS buffer supplemented with 200 μM PMSF and 1 mM EDTA and stored at −80° C. until protein purification.
The equivalent of 16 L of culture were processed in one batch of purification. Cell pellets were thawed, resuspended in 50 mM potassium phosphate buffer pH 7.0, 200 μM PMSF, 1 mM EDTA, 1 mg/mL lysozyme to 10 mL per liter of bacterial culture and incubated 30 minutes on ice. Cells were then lysed by sonication. Cell lysates were centrifuged 20 min at 20000 g and the supernatant was filtered through 0.45 μm filters. The filtered supernatant was loaded onto a 60 mL phosphocellulose column equilibrated with 50 mM potassium phosphate buffer pH 6.5 (KPB) at 1-3 mL/min. The column was washed with 3 volumes of 50 mM KPB, 3 volumes of 100 mM KPB and the protein was eluted with 15 volumes of a linear gradient of 100-500 mM KPB. Fractions were collected and IDO activity assay was performed by measuring kynurenine production. This was carried out by mixing 50 μL of each fraction with 100 μL of reaction mix to yield a final concentration of 50 mM KPB buffer, 20 mM ascorbic acid, 200 μg/mL catalase, 20 μM methylene blue and 400 μM L-tryptophan. […] Collected fractions were assayed by IDO enzymatic assay described above and the positive fractions were pooled and concentrated by ultrafiltration and dialyzed against a buffer containing 250 mM KPB, 50% glycerol.
(§1) The inhibitors were initially diluted in DMSO at 100 mM and were diluted in potassium phosphate 50 mM, added to the reaction mixture at final concentrations raging from 1 mM to 5 nM and preincubated with the enzyme for 5 min at 25° C. The reaction was started by addition of L-tryptophan to 200 μM and incubated 15 min at 37° C. The reaction was stopped by addition of 0.5 vol of 30% trichloroacetic acid and incubated 30 min at 60° C. to hydrolyze N-formylkynurenine to kynurenine. The reaction was centrifuged at 3400 g for 5 min to remove precipitated protein and the supernatant was reacted with 2% (w/v) of p-dimethylaminobenzaldehyde in acetic acid. The reaction was incubated 10 min at 25° C. and read at 480 nm in a spectrophotometer.

[2] = target: purified human TDO protein (Homo sapiens (Human), UniProt P48775); experiment: Enzymatic TDO assay; type: biochemical
purified human TDO protein, sequence (P48775 whole entry): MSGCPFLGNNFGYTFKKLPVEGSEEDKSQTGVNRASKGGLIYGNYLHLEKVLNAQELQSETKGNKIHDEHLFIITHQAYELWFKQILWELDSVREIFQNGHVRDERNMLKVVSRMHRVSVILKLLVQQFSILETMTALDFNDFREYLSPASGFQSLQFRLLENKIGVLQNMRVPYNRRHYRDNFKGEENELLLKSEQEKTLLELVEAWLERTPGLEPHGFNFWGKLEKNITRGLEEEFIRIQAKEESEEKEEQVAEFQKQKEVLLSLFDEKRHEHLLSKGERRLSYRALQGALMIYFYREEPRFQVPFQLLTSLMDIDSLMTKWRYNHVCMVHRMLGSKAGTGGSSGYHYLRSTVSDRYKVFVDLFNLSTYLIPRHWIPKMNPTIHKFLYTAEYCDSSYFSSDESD
Method: as §1, with “Differently from the IDO activity assay, no methylene blue is added to the assay. The inhibitors” for “The inhibitors”, “raging from 300 μM to 5” for “raging from 1 mM to 5”, “a spectrophotometer. Control samples with no TDO inhibitor, or with no TDO enzyme were used as controls to set the parameters for the non-linear regressions necessary for determination of the IC50 for each compound. Nonlinear regressions and determination of the IC50 values were performed using the GraphPad Prism 4 software.” for “a spectrophotometer.”

purified human IDO protein, sequence (P14902 whole entry P110S/E119G, the tested form may be a part): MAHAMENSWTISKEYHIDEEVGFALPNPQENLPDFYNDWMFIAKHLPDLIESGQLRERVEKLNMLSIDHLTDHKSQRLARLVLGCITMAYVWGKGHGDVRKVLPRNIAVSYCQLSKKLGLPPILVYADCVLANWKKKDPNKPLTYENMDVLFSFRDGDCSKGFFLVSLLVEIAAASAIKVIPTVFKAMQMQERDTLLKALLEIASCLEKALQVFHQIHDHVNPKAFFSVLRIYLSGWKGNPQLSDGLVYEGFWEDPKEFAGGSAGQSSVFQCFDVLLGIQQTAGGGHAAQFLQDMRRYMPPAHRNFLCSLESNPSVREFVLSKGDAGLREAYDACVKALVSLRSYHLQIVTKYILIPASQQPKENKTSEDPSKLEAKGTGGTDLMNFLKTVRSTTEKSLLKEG

| Compound | IC50 [1] [µM] | IC50 [2] [µM] |
| --- | --- | --- |
| O=C(CC1c2ccccc2-n2cncc21)C1CCCCC1 (centres unmarked) [Compound 27, 1-cyclohexyl-2-(9H-imidazo[1,5-a]indol-9-yl)ethan-1-one] | 1 to 10 | < 1 |
| O=C(CC1c2ccccc2-c2cnnn21)C1CCCCC1 (centres unmarked) [Compound 53, 2-(8H-[1,2,3]triazolo[5,1-a]isoindol-8-yl)-1-cyclohexylethan-1-one] | 10 to 100 | 10 to 100 |
| OC(CC1c2ccccc2-n2cncc21)C1CCCCC1 (centres unmarked) [Compound 70, 1-cyclohexyl-2-(9H-imidazo[1,5-a]indol-9-yl)ethan-1-ol] | – | < 1 |
| O=C(CC1c2ccccc2-c2cnnn21)C1CCC(F)(F)CC1 (centres unmarked) [Compound 54, 2-(8H-[1,2,3]triazolo[5,1-a]isoindol-8-yl)-1-(4,4-difluorocyclohexyl)ethan-1-one] | > 100 | > 100 |

More lines, now with the values ahead:

| IC50 [1] [µM] | IC50 [2] [µM] | Compound |
| --- | --- | --- |
| 10 to 100 | 10 to 100 | OC(CC1c2ccccc2-c2cnnn21)C1CCCCC1 (centres unmarked) [Compound 66, 2-(8H-[1,2,3]triazolo[5,1-a]isoindol-8-yl)-1-cyclohexylethan-1-ol] |
| > 100 | 1 to 10 | c1ccc2c(c1)Cc1cn[nH]c1-2 [Compound 101] |
| > 100 | > 100 | OC(CC1c2ccccc2-c2nncn21)C1CCCCC1 (centres unmarked) [Compound 69, 2-(5H-[1,2,4]triazolo[3,4-a]isoindol-5-yl)-1-cyclohexylethan-1-ol] |
| 10 to 100 | 1 to 10 | OC(CC1c2ccccc2-c2cnnn21)C1CCC(F)(F)CC1 (centres unmarked) [Compound 68, 2-(8H-[1,2,3]triazolo[5,1-a]isoindol-8-yl)-1-(4,4-difluorocyclohexyl)ethan-1-ol] |
| > 100 | > 100 | O=C(CC1c2ccccc2-c2nncn21)C1CCCCC1 (centres unmarked) [Compound 43, 2-(5H-[1,2,4]triazolo[3,4-a]isoindol-5-yl)-1-cyclohexylethan-1-one] |
